The values that follow come from patent US20230373939A1 (VERTEX PHARMACEUTICALS INCORPORATED, priority 2020, published 2023).

The test addresses T1, F508del in NIH 3T3 cells (Homo sapiens, UniProt P13569, DEL508-508).
T1 construct: expressed in transfected cells
In words: 3T3 assay: membrane potential optical assay for F508del correction. The class given is cell-based. The settings on record: for pEC50: read-out: 3T3 EC50. The essentials: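 NIH 3T3 mouse fibroblasts stably expressing F508del were incubated with corrector compounds at a range of concentrations for 16–24 h at 37 °C, then loaded with a voltage-sensing redistribution dye. Channel activity was read as membrane-potential change on FLIPR after a single addition of forskolin with a chloride-free (gluconate) bath creating a Cl⁻ gradient.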

Where [1] appears, read: NIH3T3, NIH 3T3 cells, F508del, read-out: 3T3 Max Activity (%).
Where [2] appears, read: NIH3T3, read-out: 3T3 Max Activity (%).

The structures appear in SMILES notation. pEC50: −log10 of the molar value. Where two headings read alike, the source gives them in different places.

T1 sequence (P13569 with tags, fused parts or gaps DEL508-508): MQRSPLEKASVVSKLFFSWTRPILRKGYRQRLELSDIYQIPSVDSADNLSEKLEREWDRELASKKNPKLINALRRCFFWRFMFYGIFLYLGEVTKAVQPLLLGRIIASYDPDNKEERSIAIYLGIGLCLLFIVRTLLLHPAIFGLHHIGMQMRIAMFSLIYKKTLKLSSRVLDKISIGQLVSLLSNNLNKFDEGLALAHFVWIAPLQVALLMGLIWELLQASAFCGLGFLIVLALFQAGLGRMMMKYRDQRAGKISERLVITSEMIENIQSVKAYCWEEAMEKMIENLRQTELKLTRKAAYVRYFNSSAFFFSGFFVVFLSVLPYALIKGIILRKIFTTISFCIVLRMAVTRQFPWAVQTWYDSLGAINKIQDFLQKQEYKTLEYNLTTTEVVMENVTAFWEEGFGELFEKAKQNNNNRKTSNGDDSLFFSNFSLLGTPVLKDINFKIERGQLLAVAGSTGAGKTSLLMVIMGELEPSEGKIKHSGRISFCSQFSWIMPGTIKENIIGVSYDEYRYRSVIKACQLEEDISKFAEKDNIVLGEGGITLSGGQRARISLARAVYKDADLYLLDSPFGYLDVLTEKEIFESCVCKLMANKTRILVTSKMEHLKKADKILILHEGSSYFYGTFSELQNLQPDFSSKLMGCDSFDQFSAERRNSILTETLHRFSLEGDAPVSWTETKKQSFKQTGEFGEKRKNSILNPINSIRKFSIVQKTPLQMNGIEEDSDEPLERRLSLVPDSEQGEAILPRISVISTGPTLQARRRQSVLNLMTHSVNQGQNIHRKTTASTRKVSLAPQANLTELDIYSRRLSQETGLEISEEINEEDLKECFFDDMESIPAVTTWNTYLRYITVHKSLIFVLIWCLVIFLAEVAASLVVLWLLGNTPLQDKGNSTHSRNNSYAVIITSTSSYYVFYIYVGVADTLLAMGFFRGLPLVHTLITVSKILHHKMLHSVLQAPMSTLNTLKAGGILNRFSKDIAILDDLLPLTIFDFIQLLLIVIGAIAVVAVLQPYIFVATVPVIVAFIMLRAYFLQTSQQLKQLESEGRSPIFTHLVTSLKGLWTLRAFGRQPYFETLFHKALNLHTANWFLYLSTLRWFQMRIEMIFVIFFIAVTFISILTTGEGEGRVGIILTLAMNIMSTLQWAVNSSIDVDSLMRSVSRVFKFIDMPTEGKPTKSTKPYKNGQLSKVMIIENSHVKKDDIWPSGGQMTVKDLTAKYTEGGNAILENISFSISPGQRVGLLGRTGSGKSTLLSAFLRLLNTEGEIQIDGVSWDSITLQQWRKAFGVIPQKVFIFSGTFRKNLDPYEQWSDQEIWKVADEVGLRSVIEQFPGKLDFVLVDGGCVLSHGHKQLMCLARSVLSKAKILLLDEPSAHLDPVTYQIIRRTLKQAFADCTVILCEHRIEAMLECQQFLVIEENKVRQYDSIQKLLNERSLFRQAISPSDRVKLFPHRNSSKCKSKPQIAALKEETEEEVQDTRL

For `Nc1cccc(S(=O)(=O)Nc2nc(-c3ccccc3)c(Cc3cccc(C(=O)O)c3)s2)c1` [Compound 28, 3-[[2-[(3-aminophenyl)sulfonylamino]-4-phenyl-thiazol-5-yl]methyl]benzoic acid], the Emax under setting [1] was < 30%.
On the same count and under the same terms, as for `Cc1cc(C)c(-n2cc(Br)c(NS(=O)(=O)c3ccccc3)n2)c(C)c1` [Compound 99, N-[4-bromo-1-(2,4,6-trimethylphenyl)pyrazol-3-yl]benzenesulfonamide], the figure is < 30%; as for `O=S(=O)(Nc1nn(Cc2ccccc2)cc1-c1cccc(Cl)c1)c1ccccc1` [Compound 109, N-[1-benzyl-4-(3-chlorophenyl)pyrazol-3-yl]benzenesulfonamide], < 30%.
Take `CC(C)(C)c1nc(NS(=O)(=O)c2ccccc2)sc1C#N` [Compound 45, N-(4-tert-butyl-5-cyano-thiazol-2-yl)benzenesulfonamide]: the Emax under setting [1] was < 30%.
In general, pEC50 refers to −log10 of the EC50, conventionally taken in molar units. As for `COc1ccccc1-c1cc(NS(=O)(=O)c2ccccc2)nn1-c1c(C)cc(C)cc1C` [Compound 60, N-[5-(2-methoxyphenyl)-1-(2,4,6-trimethylphenyl)pyrazol-3-yl]benzenesulfonamide], the Emax under setting [1] was > 60%. Also, the pEC50 (NIH 3T3 cells, F508del) is 5.52 to 6.00.
As for `O=S(=O)(Nc1onc(-c2ccc(Cl)cc2)c1-c1ccc(Cl)cc1)c1ccccc1` [Compound 1, N-[3,4-bis(4-chlorophenyl)isoxazol-5-yl]benzenesulfonamide], the Emax under setting [2] is 30 to 60%. Also, the pEC50 (NIH 3T3 cells, F508del) was 5.52 to 6.00.
Turning to `Cc1cc(C)c(-n2nc(NS(=O)(=O)c3ccccc3)cc2-c2ccccc2)c(C)c1` [Compound 68, N-[5-phenyl-1-(2,4,6-trimethylphenyl)pyrazol-3-yl]benzenesulfonamide], under setting [1], the Emax is > 60%. Further, the pEC50 (NIH 3T3 cells, F508del) is 5.52 to 6.00.
Regarding `Cc1cccc(-c2cn(Cc3ccccc3)nc2NS(=O)(=O)c2ccccc2)c1` [Compound 114, N-[1-benzyl-4-(m-tolyl)pyrazol-3-yl]benzenesulfonamide], the Emax under setting [1] is < 30%.
Consider `O=S(=O)(Nc1nn(-c2cccc(Cl)c2)cc1C1=CCCCC1)c1ccccc1` [Compound 87, N-[1-(3-chlorophenyl)-4-(cyclohexen-1-yl)pyrazol-3-yl]benzenesulfonamide], for which, under setting [1], the Emax was 30 to 60%. For the same compound, the pEC50 (NIH 3T3 cells, F508del) is 5.52 to 6.00.
With `O=S(=O)(Nc1cc(-c2ccccc2)nc(-c2ccccc2)n1)c1ccccc1` [Compound 131, N-(2,6-diphenylpyrimidin-4-yl)benzenesulfonamide], the Emax under setting [1] is > 60%. Moreover, for the setting “NIH 3T3 cells, F508del”, the pEC50 is 5.52 to 6.00.
Consider `Cc1ccccc1-c1cn(-c2cccc(Cl)c2)nc1NS(=O)(=O)c1ccccc1` [Compound 95, N-[1-(3-chlorophenyl)-4-(o-tolyl)pyrazol-3-yl]benzenesulfonamide], for which the Emax under setting [1] is < 30%.
As for `Cc1cccc(C)c1-c1cnc(Oc2ccccc2)c(NS(=O)(=O)c2ccccc2)n1` [Compound 121, N-[6-(2,6-dimethylphenyl)-3-phenoxy-pyrazin-2-yl]benzenesulfonamide], under setting [1], the Emax was < 30%.
Turning to `COc1cccc(-c2cn(Cc3ccccc3)nc2NS(=O)(=O)c2ccccc2)c1` [Compound 112], the Emax under setting [1] was < 30%.
`Cc1cc(C)cc(-c2nc(NS(=O)(=O)c3ccccc3)ccc2C)c1` [Compound 149]: under setting [1], the Emax was > 60%. Also, the pEC50 (NIH 3T3 cells, F508del) is 4.52 to 5.52.
With `O=S(=O)(Nc1nn(Cc2ccccc2)cc1-c1ccccc1Cl)c1ccccc1` [Compound 110, N-[1-benzyl-4-(2-chlorophenyl)pyrazol-3-yl]benzenesulfonamide], the Emax under setting [1] was < 30%.
Regarding `Cc1sc(NS(=O)(=O)c2ccccc2)nc1-c1ccncc1` [Compound 43, N-[5-methyl-4-(4-pyridyl)thiazol-2-yl]benzenesulfonamide], the Emax under setting [1] is < 30%.
Same read-out and setting: as for `O=S(=O)(Nc1ncc(Cc2cnccn2)s1)c1ccccc1` [Compound 31, N-[5-(pyrazin-2-ylmethyl)thiazol-2-yl]benzenesulfonamide], the figure is < 30%.
Regarding `Cc1cc(C)c(-n2nc(NS(=O)(=O)c3ccccc3)cc2-c2ccccc2C)c(C)c1` [Compound 62], under setting [1], the Emax was > 60%. In addition, the pEC50 (NIH 3T3 cells, F508del) was > 6.00.
As for `CCCc1sc(NS(=O)(=O)c2ccccc2)nc1-c1ccc(C)cc1C` [Compound 6, N-[4-(2,4-dimethylphenyl)-5-propyl-thiazol-2-yl]benzenesulfonamide], the Emax under setting [2] was > 60%. For the same compound, under “NIH 3T3 cells, F508del”, the pEC50 was > 6.00.
Take `COc1ccccc1-c1cn(Cc2ccccc2)nc1NS(=O)(=O)c1ccccc1` [Compound 113, N-[1-benzyl-4-(2-methoxyphenyl)pyrazol-3-yl]benzenesulfonamide]: under setting [1], the Emax is < 30%.
In the case of `O=S(=O)(Nc1nn(Cc2ccccc2)cc1C1CCCCC1)c1ccccc1` [Compound 103, N-(1-benzyl-4-cyclohexyl-pyrazol-3-yl)benzenesulfonamide], the Emax under setting [1] was < 30%.
Same read-out and setting: next, `O=S(=O)(Nc1nc(C2CC2)cs1)c1ccccc1` [Compound 12, N-(4-cyclopropylthiazol-2-yl)benzenesulfonamide]: < 30%.
For the compound `Cc1cc(C)c(-n2nc(NS(=O)(=O)c3ccccc3)cc2-c2ccc(Oc3ccccc3)cc2)c(C)c1` [Compound 49, N-[5-(4-phenoxyphenyl)-1-(2,4,6-trimethylphenyl)pyrazol-3-yl]benzenesulfonamide], under setting [2], the Emax fell in the range of 30 to 60%. Further, under “NIH 3T3 cells, F508del”, the negative logarithm of the EC50 (pEC50) was > 6.00.
As to `Cc1cccc(-c2nc(NS(=O)(=O)c3ccccc3)cc(C)c2C)c1C` [Compound 158], under setting [1], the Emax was > 60%. Moreover, the pEC50 (NIH 3T3 cells, F508del) is 4.52 to 5.52.
Take `Cc1ccc(NS(=O)(=O)c2ccccc2)nc1-c1cccc(C)c1C` [Compound 137, N-[6-(2,3-Dimethylphenyl)-5-methyl-2-pyridyl]benzenesulfonamide]: the Emax under setting [1] is > 60%. For the same compound, the pEC50 (NIH 3T3 cells, F508del) was 5.52 to 6.00.
Turning to `CCCc1sc(NS(=O)(=O)c2ccccc2)nc1-c1ccc(C)cc1` [Compound 5, N-[5-propyl-4-(p-tolyl)thiazol-2-yl]benzenesulfonamide], under setting [2], the Emax is > 60%. Further, the pEC50 (NIH 3T3 cells, F508del) is > 6.00.
As to `Nc1cccc(S(=O)(=O)Nc2nn(-c3ccccc3)cc2Cc2ccccc2)c1` [Compound 73, 3-amino-N-(4-benzyl-1-phenyl-pyrazol-3-yl)benzenesulfonamide], under setting [1], the Emax lay within 30 to 60%.
As to `CCOC(=O)C1=C(c2ccccc2)N=C(NS(=O)(=O)c2ccccc2)SC1c1ccccc1` (centres unmarked) [Compound 116, ethyl 2-(benzenesulfonamido)-4,6-diphenyl-6H-1,3-thiazine-5-carboxylate], the Emax under setting [1] was > 60%. Further, the pEC50 (NIH 3T3 cells, F508del) was > 6.00.
Turning to `O=S(=O)(Nc1n[nH]cc1-c1ccccc1)c1ccccc1` [Compound 77, N-(4-phenyl-1H-pyrazol-3-yl)benzenesulfonamide], the Emax under setting [1] is < 30%.
For `O=S(=O)(Nc1nn(-c2cccc(Cl)c2)cc1-c1ccc(Cl)cc1)c1ccccc1` [Compound 88, N-[1-(3-chlorophenyl)-4-(4-chlorophenyl)pyrazol-3-yl]benzenesulfonamide], the Emax under setting [1] was < 30%.
For the compound `CC(C)(C)CCNC(=O)c1sc(NS(=O)(=O)c2ccccc2)nc1-c1ccccc1` [Compound 15, 2-(benzenesulfonamido)-N-(3,3-dimethylbutyl)-4-phenyl-thiazole-5-carboxamide], the Emax under setting [1] is 30 to 60%. Besides, the pEC50 (NIH 3T3 cells, F508del) is 4.52 to 5.52.
In the case of `Cc1ccc(-c2cn(-c3cccc(Cl)c3)nc2NS(=O)(=O)c2ccccc2)cc1` [Compound 93, N-[1-(3-chlorophenyl)-4-(p-tolyl)pyrazol-3-yl]benzenesulfonamide], the Emax under setting [1] was < 30%.
For `CCCc1sc(NS(=O)(=O)c2ccccc2)nc1-c1cc(C)ccc1C` [Compound 18, N-[4-(2,5-dimethylphenyl)-5-propyl-thiazol-2-yl]benzenesulfonamide], under setting [1], the Emax is > 60%. Where the note is “NIH 3T3 cells, F508del”, the pEC50 was > 6.00.
For `Cc1ccc(-c2nc(NS(=O)(=O)c3ccccc3)sc2-c2ccc(C)cc2)cc1` [Compound 10, N-[4,5-bis(p-tolyl)thiazol-2-yl]benzenesulfonamide], the Emax under setting [2] is 30 to 60%. Also, under “NIH 3T3 cells, F508del”, the pEC50 was > 6.00.
`Cc1cc(C)c(-n2nc(NS(=O)(=O)c3ccccc3)cc2-c2cccc(Cl)c2)c(C)c1` [Compound 57, N-[5-(3-chlorophenyl)-1-(2,4,6-trimethylphenyl)pyrazol-3-yl]benzenesulfonamide]: the Emax under setting [1] was > 60%. For the same compound, under “NIH 3T3 cells, F508del”, the pEC50 is > 6.00.
Taken in the same sequence, the figures for `COC(=O)Cc1nc(NS(=O)(=O)c2ccccc2)sc1-c1ccccc1` [Compound 40, methyl 2-[2-(benzenesulfonamido)-5-phenyl-thiazol-4-yl]acetate] were 30 to 60% and 4.52 to 5.52.
In the case of `O=S(=O)(Nc1ccnn1C1CCCCC1)c1ccccc1` [Compound 79, N-(2-cyclohexylpyrazol-3-yl)benzenesulfonamide], under setting [1], the Emax is < 30%.
On the same count and under the same terms, next, `Cn1cc(S(=O)(=O)Nc2nn(-c3ccccc3)cc2Cc2ccccc2)cn1` [Compound 72, N-(4-benzyl-1-phenyl-pyrazol-3-yl)-1-methyl-pyrazole-4-sulfonamide]: < 30%.
Turning to `Cc1ccc(-c2nc(NS(=O)(=O)c3ccccc3)ccc2C)cc1C` [Compound 134, N-[6-(3,4-Dimethylphenyl)-5-methyl-2-pyridyl]benzenesulfonamide], under setting [1], the Emax was > 60%. Besides, where the note is “NIH 3T3 cells, F508del”, the pEC50 is 4.52 to 5.52.
Taken in the same sequence, the figures for `Nc1cccc(S(=O)(=O)Nc2nc(-c3ccccc3)c(Cc3ccccc3)s2)c1` [Compound 9, 3-amino-N-(5-benzyl-4-phenyl-thiazol-2-yl)benzenesulfonamide] were 30 to 60% and 5.52 to 6.00.
Taken in the same sequence, the figures for `Cc1cc(C)c(-n2nc(NS(=O)(=O)c3ccccc3)cc2C2=CCCCC2)c(C)c1` [Compound 63, N-[5-(cyclohexen-1-yl)-1-(2,4,6-trimethylphenyl)pyrazol-3-yl]benzenesulfonamide] were > 60% and 5.52 to 6.00.
